Marks after values point to notes of the source that are not given here.
What was measured:
[1] = Solubility of glucosyladenosines in water (maximum dissolved concentration, HPLC); assay type: physicochemical
Protocol: As a basic property, the solubilities in water of the glucosyladenosines of the present invention were compared with that of adenosine. The 5′-glucosyladenosine prepared in Experiment 1-2 and the 3′-glucosyladenosine prepared in Experiment 2 were determined for solubility in water, and they were compared with that of adenosine. One hundred milligrams of 5′-glucosyladenosine or 3′-glucosyladenosine (these compounds may be collectively called glucosyladenosines, hereinafter) was dissolved in 500 μl of pure water at an ambient temperature (25° C.). While, five milligrams of adenosine was dissolved in 500 μl of pure water at an ambient temperature (25° C.). […] The filtrate was fed to HPLC under the following conditions, followed by determining the respective contents of glucosyladenosines and adenosine based on the peak areas appeared on a chromatogram by an ultraviolet detector, and calculating their concentrations as maximum dissolved concentrations at an ambient temperature (25° C.). The same samples were allowed to stand at a 4° C. cold room for one month and centrifuged, followed by quantifying the contents of glucosyladenosines and adenosine in the resulting supernatants similarly as above to determine their maximum dissolved concentrations at 4° C.
<Conditions for HPLC Analysis>
Apparatus: SHIMADZU UV-VIS DETECTOR SPD-10AV (a detector), LC-10AT (a pump), C-R8A (a recorder), and SIL-20AC (an autosampler);
Mobile phase: (0.1 v/v % aqueous acetic acid solution)/(methanol)=96/4 (v/v),
Detection wavelength: 260 nm,
Injection volume: 20 μl, and
Column temperature: 40° C.

involucrin (INV) = test: Real-time PCR gene expression in NHEK cells: involucrin; assay type: cell-based, human; conditions: 1 μM, seven days, relative to control = 1.00
Protocol: (§1) Since glucosyladenosines were confirmed in Experiment 5 to have an action of enhancing the differentiation of keratinocytes effective for skin improvement, a test for examining the change of the expression level of a molecular marker gene of keratinocytes, as an index, was performed as follows using a real-time PCR analysis method to examine the above action in more detail. The expression level of a ceramide-synthesis-related gene was also studied to examine the influence of glucosyladenosines on ceramide synthesis that had been known to have an important role in moisturizing the skin and barrier function of the skin and deemed to be effective for skin improvement. As genes for analysis, profilaggrin (PFG: a later differentiation marker) and involucrin (INV: an early differentiation marker) as differentiation markers of keratinocytes and β-glucocerebrosidase (GCase) and sphingomyelinase (SMase) as ceramide-synthesis-related enzymes were selected, and a gene for cyclophilin B (CypB) as an internal standard upon practicing PCR reaction was used (see FIG. 7). NHEK cells were inoculated to 6-well plate coated with collagen in an amount of 8×10^4 cells/1.5 ml/well, cultured with EpiLife medium, and cultured at 37° C. for two days under a 5 v/v % CO2 condition. Thereafter, the culture medium was removed, and the resulting cells were added with a fresh EpiLife medium containing 5′-glucosyladenosine, 3′-glucosyladenosine, or adenosine in a volume of 1.5 ml/well (giving a final concentration of 1 μM of any one of glucosyladenosines and adenosine), and cultured for seven days while replacing the medium with a fresh one containing any one of glucosyladenosines and adenosine in a volume of 1.5 ml/well every other day. After completion of the culture, each well was washed twice with PBS(K−), followed by adding 0.2 ml/well of 0.025% by mass of trypsin/EDTA solution to the resulting cells and allowing the cells to stand at an ambient temperature for five minutes to detach them from the plates. […]

[2] = system: β-glucocerebrosidase (GCase); test: Real-time PCR gene expression in NHEK cells: β-glucocerebrosidase; assay type: cell-based, human; conditions: 1 μM, seven days, relative to control = 1.00
Protocol: as §1

[3] = system: three-dimensional skin model (EPI-200 Kit); test: Cytotoxicity: LDH release from three-dimensional skin model; assay type: cell-based; conditions: 18 hours, control = 1.0
Protocol: To examine whether glucosyladenosines are successively applied to the skin as ingredients for sustainable external dermal agents, they were examined for cytotoxicity. The strengths of cytotoxicity of glucosyladenosines were examined with an index of […] (LDH) that is released when cell are damaged, as an influence of glucosyladenosines and adenosine on three dimensional skin. […] A system, to which 30% ethanol with no glucosyladenosines and adenosine was added, was provided as a control. For the collected media, the activity of […] (LDH) released from each skin model was assayed on “CYTOTOXICITY DETECTION KIT (LDH)”, a product name of Hoffmann-La Roche Ltd., Basel, Switzerland, and calibrated for obtaining a relative LDH activity by regarding the LDH activity of the control as 1.0 in order to evaluate the cytotoxicity for each sample.

Structure (SMILES): Nc1ncnc2c1ncn2[C@@H]1O[C@H](CO)[C@@H](O[C@H]2O[C@H](CO)[C@@H](O)[C@H](O)[C@H]2O)[C@H]1O [3′-Glucosyladenosine, α-D-glucopyranosyl-(1→3′)-adenosine]
- Maximum dissolved concentration ([1]; 4° C., one month): 2 w/v %
- Maximum dissolved concentration ([1]; 25° C., one day): 2 w/v %
- Gene expression level INV (involucrin (INV)): 1.52*
- Gene expression level GCase [2]: 2.08*
- Relative LDH activity ([3]; concentration 5%): 0.99

Structure (SMILES): Nc1ncnc2c1ncn2[C@@H]1O[C@H](CO[C@H]2O[C@H](CO)[C@@H](O)[C@H](O)[C@H]2O)[C@@H](O)[C@H]1O [5′-Glucosyladenosine, α-D-glucopyranosyl-(1→5′)-adenosine]
- Maximum dissolved concentration ([1]; 4° C., one month): > 15.7 w/v %
- Maximum dissolved concentration ([1]; 25° C., one day): > 16.1 w/v %
- Gene expression level INV (involucrin (INV)): 1.66**
- Gene expression level GCase [2]: 2.68**
- Relative LDH activity ([3]; concentration 5%): 0.79

Structure (SMILES): Nc1ncnc2c1ncn2[C@@H]1O[C@H](CO)[C@@H](O)[C@H]1O [Adenosine, reference compound]
- Maximum dissolved concentration ([1]; 4° C., one month): 0.4 w/v %
- Maximum dissolved concentration ([1]; 25° C., one day): 0.8 w/v %
- Gene expression level INV (involucrin (INV)): 1.15
- Gene expression level GCase [2]: 1.37
- Relative LDH activity ([3]; concentration 0.1%): 1.38
- Relative LDH activity ([3]; concentration 1%): 3.68

Source: patent US9492368B2, “External preparation for skin” (HAYASHIBARA CO., LTD., priority 2011, dated 2016)
